Laboratory results reported in patent publication US11412737B2, “Mixtures of beflubutamid or optically enriched forms thereof with a second herbicide” (FMC Corporation, priority 2016, dated 2022).

What was measured:
Experiment in all cases: pre-emergence test, weed control
Blackgrass (ALOMY) = type: in vivo; conditions: pre-emergent, 28 DAT, (+)-BFL >95% e.e., rate g ai/ha by row: r6 62.5, r7 125, r8 62.5, r9 125, r10 222, r11 445, r12 22.5, r13 45, r14 62.5+62.5, r15 125+62.5, r16 62.5+125, r17 125+125, r18 62.5+222, r19 125+222, r20 62.5+445, r21 125+445, r22 62.5+22.5, r23 125+22.5, r24 62.5+45, r25 125+45
Experimental: (§1) Test compositions containing the test compounds were diluted with water to provide the appropriate test rate concentrations.
(§2) For pre-emergence testing, four disposable fiber flats (6 inch by 10 inch) for each rate of application of each herbicide solution were filled with top soil, to which seeds of each species were planted in furrows made by a template pressed on the top of the soil. The furrows were covered with soil after planting the seed and were watered well before application of the test compounds.
(§3) Fiber flats designated for treatment were placed in a spray chamber having a static platform and a movable sprayer and the height of the spray nozzle was 10.5 inches above the soil level. Once the sprayer was calibrated using water for spray volume of 30 gallons per acre, flats were sprayed with sprayer at a speed to receive a coverage equivalent of 30 gallons per acre. The application rates are those shown in the Tables below for the individual herbicidal solutions and the herbicide compositions of this invention. The pre-emergence flats were immediately placed in the greenhouse and watered lightly after treatment. Thereafter they were regularly watered and fertilized for the duration of the test.
(§4) The control of weeds was evaluated in each experimental test at 21 for wheat and 28 days after treatment (DAT) for all species. Data were analyzed using Minitab software at 95% confidence interval. The results, shown as an average of the replications, were compared with results observed in untreated control flats in the same tests. Percent control was determined by a method similar to the 0 to 100 rating system disclosed in “Research Methods in Weed Science,” 2nd ed., B. Truelove, Ed.; Southern Weed Science Society; Auburn University, Auburn, Ala., 1977. The rating system is as follows in Table 1.

Yellow foxtail (SETLU) = type: in vivo; conditions: pre-emergent, 28 DAT, (+)-BFL >95% e.e., rate g ai/ha by row: r6 62.5, r7 125, r8 62.5, r9 125, r10 222, r11 445, r12 22.5, r13 45, r14 62.5+62.5, r15 125+62.5, r16 62.5+125, r17 125+125, r18 62.5+222, r19 125+222, r20 62.5+445, r21 125+445, r22 62.5+22.5, r23 125+22.5, r24 62.5+45, r25 125+45
Experimental: as §1, §2, §3, §4

Wild oat (AVEFA) = type: in vivo, Avena fatua; conditions: pre-emergent, 28 DAT, (+)-BFL >95% e.e., rate g ai/ha by row: r6 62.5, r7 125, r8 62.5, r9 125, r10 222, r11 445, r12 22.5, r13 45, r14 62.5+62.5, r15 125+62.5, r16 62.5+125, r17 125+125, r18 62.5+222, r19 125+222, r20 62.5+445, r21 125+445, r22 62.5+22.5, r23 125+22.5, r24 62.5+45, r25 125+45
Experimental: as §1, §2, §3, §4

Green foxtail (SETVI) = type: in vivo, Setaria viridis; conditions: pre-emergent, 28 DAT, (+)-BFL >95% e.e., rate g ai/ha by row: r6 62.5, r7 125, r8 62.5, r9 125, r10 222, r11 445, r12 22.5, r13 45, r14 62.5+62.5, r15 125+62.5, r16 62.5+125, r17 125+125, r18 62.5+222, r19 125+222, r20 62.5+445, r21 125+445, r22 62.5+22.5, r23 125+22.5, r24 62.5+45, r25 125+45
Experimental: as §1, §2, §3, §4

Italian ryegrass (LOLMU) = type: in vivo, Lolium perenne. multiflorum; conditions: pre-emergent, 28 DAT, (+)-BFL >95% e.e.; rate g ai/ha by row: r6 62.5, r7 125, r8 62.5, r9 125, r10 222, r11 445, r12 22.5, r13 45, r14 62.5+62.5, r15 125+62.5, r16 62.5+125, r17 125+125, r18 62.5+222, r19 125+222, r20 62.5+445, r21 125+445, r22 62.5+22.5, r23 125+22.5, r24 62.5+45, r25 125+45
Experimental: as §1, §2
(§5) Fiber flats designated for treatment were placed in a spray chamber having a static platform and a movable sprayer and the height of the spray nozzle was 10.5 inches above the soil level. Once the sprayer was calibrated using water for spray volume of 30 gallons per acre, flats were sprayed with sprayer at a speed to receive a coverage equivalent of 30 gallons per acre. […]
(§6) The control of weeds was evaluated in each experimental test at 21 for wheat and 28 days after treatment (DAT) for all species. Data were analyzed using Minitab software at 95% confidence interval. […] Percent control was determined by a method similar to the 0 to 100 rating system disclosed in “Research Methods in Weed Science,” 2nd ed., B. Truelove, Ed.; Southern Weed Science Society; Auburn University, Auburn, Ala., 1977. […]

[1] = test system: Common lambsquarters (CHEAL); type: in vivo, Chenopodium album; conditions: pre-emergent
Experimental: as §1, §2, §3, §4

Goosegrass (ELEIN) = type: in vivo; conditions: pre-emergent, 28 DAT; rate g ai/ha by row: r5 94, r6 125, r7 250, r8 62.5, r9 125, r10 250, r11 94+62.5, r12 125+62.5, r13 94+125, r14 125+125, r15 94+250, r16 125+250, r17 78.8, r18 157.5, r19 315, r20 94+78.8, r21 125+78.8, r22 94+157.5, r23 125+157.5, r24 94+315, r25 125+315
Experimental: as §1, §2, §3, §4

Large crabgrass (DIGSA) = type: in vivo; conditions: pre-emergent, 28 DAT, rate g ai/ha by row: r4 94, r5 50, r6 100, r7 52.5, r8 70, r9 94+52.5, r10 94+70, r11 50+52.5, r12 50+70, r13 100+52.5, r14 100+70
Experimental: as §1, §2, §3, §4

Barnyardgrass (ECHCG) = type: in vivo, Echinochloa crus-galli; conditions: pre-emergent, 28 DAT; rate g ai/ha by row: r5 94, r6 125, r7 250, r8 62.5, r9 125, r10 250, r11 94+62.5, r12 125+62.5, r13 94+125, r14 125+125, r15 94+250, r16 125+250, r17 78.8, r18 157.5, r19 315, r20 94+78.8, r21 125+78.8, r22 94+157.5, r23 125+157.5, r24 94+315, r25 125+315
Experimental: as §1, §2, §5, §6

| Compound | percentage of weed control, ALOMY (Blackgrass (ALOMY); 62.5 g ai/ha) [%] | percentage of weed control, ALOMY (Blackgrass (ALOMY); 125 g ai/ha) [%] | percentage of weed control, SETLU (Yellow foxtail (SETLU); 62.5 g ai/ha) [%] | percentage of weed control, SETLU (Yellow foxtail (SETLU); 125 g ai/ha) [%] | percentage of weed control, AVEFA (Wild oat (AVEFA); 62.5 g ai/ha) [%] | percentage of weed control, AVEFA (Wild oat (AVEFA); 125 g ai/ha) [%] | percentage of weed control, SETVI (Green foxtail (SETVI); 62.5 g ai/ha) [%] | percentage of weed control, SETVI (Green foxtail (SETVI); 125 g ai/ha) [%] | percentage of weed control, LOLMU (Italian ryegrass (LOLMU)) [%] | weed control of common lambsquarters (CHEAL) ([1]; applied alone, 28 DAT (Table 17)) | percentage of weed control, CHEAL ([1]; 28 DAT, (+)-BFL >95% e.e., rate g ai/ha by row: r6 62.5, r7 125, r8 62.5, r9 125, r10 222, r11 445, r12 22.5, r13 45, r14 62.5+62.5, r15 125+62.5, r16 62.5+125, r17 125+125, r18 62.5+222, r19 125+222, r20 62.5+445, r21 125+445, r22 62.5+22.5, r23 125+22.5, r24 62.5+45, r25 125+45) [%] | percentage of weed control, Goosegrass ELEIN (Goosegrass (ELEIN)) [%] | percentage of weed control, DIGSA (Large crabgrass (DIGSA); 52.5 g ai/ha) [%] | percentage of weed control, DIGSA (Large crabgrass (DIGSA); 70 g ai/ha) [%] | percentage of weed control, Barnyardgrass ECHCG (Barnyardgrass (ECHCG)) [%] |
| --- | --- | --- | --- | --- | --- | --- | --- | --- | --- | --- | --- | --- | --- | --- | --- |
| CC[C@@H](Oc1ccc(F)c(C(F)(F)F)c1)C(=O)NCc1ccccc1 [(+)-BFL] | 2 | 5 | 0 | 5 | 0 | 1 | 7 | 8 | 1 | low level weed control | 37 | – | – | – | – |
| COC[C@H](C)N(C(=O)CCl)c1c(C)csc1C [Dimethanamid-P] | – | – | – | – | – | – | – | – | – | – | – | 96 | 20 | 25 | 100 |
